Assay results taken from US20060193832A1, “Use of the sodium iodine symporter to effect uptake of iodine” (priority 2005, published 2006).
Entries after “also recorded” stand apart in the source; their conditions may differ.

Key:
NIS [1] = target: T1, NIS (Homo sapiens, UniProt Q92911); assay: Perchlorate inhibition of NIS-mediated radioiodide uptake in FaDu cells; assay type: cell-based; set-up: The full-length hNIS cDNA was digested from this plasmid and ligated into the pacAd5 CMV K—N pA shuttle vector; expressed in transfected cells; settings: 1 mM sodium perchlorate added before radioiodide, Ad-hNIS-transduced FaDu cells
T1 sequence (Q92911 1-643): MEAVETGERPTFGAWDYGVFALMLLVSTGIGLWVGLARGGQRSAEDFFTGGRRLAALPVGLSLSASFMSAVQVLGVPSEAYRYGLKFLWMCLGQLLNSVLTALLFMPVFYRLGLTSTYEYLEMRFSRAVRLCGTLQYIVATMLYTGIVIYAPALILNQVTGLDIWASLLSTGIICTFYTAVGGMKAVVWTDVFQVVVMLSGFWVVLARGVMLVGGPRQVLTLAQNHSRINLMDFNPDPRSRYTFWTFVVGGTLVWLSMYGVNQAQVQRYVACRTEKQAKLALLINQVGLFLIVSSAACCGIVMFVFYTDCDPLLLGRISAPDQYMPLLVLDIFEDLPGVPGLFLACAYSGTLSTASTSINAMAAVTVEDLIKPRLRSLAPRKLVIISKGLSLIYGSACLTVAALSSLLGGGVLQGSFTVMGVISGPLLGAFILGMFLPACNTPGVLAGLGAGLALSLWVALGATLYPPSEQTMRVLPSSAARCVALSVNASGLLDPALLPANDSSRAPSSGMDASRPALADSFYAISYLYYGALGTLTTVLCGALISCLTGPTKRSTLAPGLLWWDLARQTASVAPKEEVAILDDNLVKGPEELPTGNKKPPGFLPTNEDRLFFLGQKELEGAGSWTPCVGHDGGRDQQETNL
Method: Radioiodide Uptake and Efflux. Cells (2.5×10^5) were seeded in each well of 12-well plates on day 1. Twelve hours later, 40 multiplicity of infection (MOI; the ratio of infectious viral particles to cells) of adenovirus was added to each well. Twenty-four hours later, 2 μCi of sodium [^125I] iodide (New England Nuclear, North Billerica, Mass.) was added to each well, and the plates were incubated for 1 hour at 37° C. […] Medium was then removed, and cells were washed once with PBS. Plates were then exposed overnight on a phosphor imaging screen, and signal intensity was determined with a Typhoon 9400 imager (Amersham Biosciences, Buckinghamshire, England). Signal intensity was compared with that of standards of known activity. […] To determine the rate of [^125I] iodide efflux from cells, uptake was performed as previously described.

[2] = system: NIS expressing human tumor xenograft of FaDu carcinoma cells; settings: 4.2 Gy delivered to the tumor
From the text: To begin to address this issue, the inventors have established a method to estimate dosimetry based on gamma camera imaging of ^131I uptake and retention using a pinhole collimator. […] Data collected from the pinhole collimator gamma camera imaging has enabled us to calculate doses delivered to tumor xenografts and therefore to perform comparative dosimetry between different isotopes such as ^131I and ^188ReO4—.

[3] = system: hNIS stable expressing FaDu transfectants
Method: In Vivo Tumor Growth. […] Twenty-four hours later, cells were trypsinized, washed, and resuspended in PBS. […] After allowing 48 hours for engraftment of tumor cells, 1 mCi of [^131I] iodide was injected intraperitoneally into each mouse. Second, to assess the effects of genetically targeted radiotherapy on established tumors, 5×10^6 stably transfected NIS-expressing FaDu cells or their parental counterparts were injected subcutaneously into both flanks of athymic mice. The tumors were allowed to grow to an average tumor diameter of 5 mm and then 1 mCi of [^131I] iodide was injected intraperitoneally into each mouse. In both experiments, tumor sizes were recorded in three dimensions every 2 days. Average tumor diameters were determined by taking the cube root of tumor width×length×depth. The experiments were terminated when the average tumor diameter exceeded 10 mm. All animal studies were performed in accordance with the Public Health Service policy on Humane Care and Use of Laboratory Animals, the NIH Guide for the Care and Use of Laboratory Animals, and the Animal elfare Act (7 U.S.C. et seq.); the animal use protocol was approved by the Institutional Animal Care and Use Committee (IACUC) of the University of Iowa.

[4] = system: NIS-expressing F98 gliomas; settings: rats bearing NIS-expressing F98 gliomas; cited from earlier work
[5] = system: NIS-expressing tumor tissue; assay: Gamma camera imaging of 188ReO4 uptake in Ad-NIS injected tumor bearing mouse; assay type: in vivo; settings: 2 hours after systemic administration
From the text: As discussed in detail below, the beta particle emitted from ^188Re is more energetic than that of ^131I and can travel a further distance in tissue, thus may be well suited to use in the context of larger tumors that are found in human head and neck cancer.

[6] = radionuclide half-life; cited from earlier work
NIS [7] = target: T1, NIS; settings: stably transfected cell lines; cited from earlier work
Ad-NIS infected cells = assay: Iodide retention with recombinant LPO during the efflux period; assay type: cell-based; settings: recombinant LPO present during efflux period, 2 hours of efflux
From the text: The inventors are also exploring other novel methods to enhance iodine retention in cells and, to this end, they have examined the effect of lactoperoxidase (LPO) on iodide organification and retention in NIS+ cell populations.

[8] = sixty days after [131I] iodide administration

[Na+].[O-][Cl+3]([O-])([O-])[O-] [Perchlorate, sodium perchlorate]
effect on NIS-mediated [125I] iodide accumulation (NIS [1]): inhibited iodide accumulation; also recorded: inhibits NIS-mediated [^125I] iodide uptake

[131I-].[Na+] [[^131I] iodide, sodium [^131I] iodide]
tumor outcome at the delivered dose [2]: remission of this tumor
tumors with complete response (shrunk beyond the limit of detection) ([3]; NIS-FaDu established tumors (5 mm), 1 mCi [131I] iodide i.p.): eight of eight
local adverse effects of radiotherapy ([3]; mice given 1 mCi [131I] iodide i.p.): No local adverse effects
tumors recurred [3, 8]: two
tumors remaining in complete remission [3, 8]: six

[O]=[Re](=[O])(=[O])[O-] [^188ReO4, Perrhenate]
survival versus 131I treatment [4]: increased survival
tissue accumulation of 188ReO4- [5]: thyroid, stomach, and NIS-expressing tumor tissue, also display high affinity
t1/2 [6]: 16.9 h
in vitro uptake as compared to iodide (NIS [7]): two- to three-fold higher

lactoperoxidase [LPO]
cell-associated iodide during efflux (Ad-NIS infected cells): significantly longer retention times; also recorded: increased levels of cell-associated iodide
